Among the data in publication PMC12040169 (PLOS Biology, 2025) are viability values, retold here.

A short description of this data set: in vitro. The conditions noted are these: human, hela cells, % viability.

Molecules are shown by their SMILES.

As usually defined, the viability is a read-out of living cells in per cent, often relative to untreated cells. As to `Cc1ccn2c(C3CCN(CCc4ccccc4)CC3)nc(-c3ccccc3)c2c1` [CBK035490], the viability at 28.5 h, 10 µM was 89.4%.

In the case of `CN1CCCN(c2nc(-c3cccc(C(F)(F)F)c3)cn3ccnc23)CC1` [CBK066519], the viability at 28.5 h, 10 µM worked out at 92%.

As for `O=C(COc1ccc(S(=O)(=O)N2CCc3ccccc32)cc1Cl)NCc1ccco1` [CBK268293], the viability at 28.5 h, 10 µM was 102%.

On to `O=C(Nc1ccccc1)OCC(CN1CCCCC1)OC(=O)Nc1ccccc1` (stereo not shown) [CBK023067C], for which the viability at 28.5 h, 10 µM worked out at 103%.

As for `CN1CCN(C(=O)c2ccc(-c3cnc(OCC4CCN(C(=O)OC(C)(C)C)CC4)nc3)cn2)CC1` [CBK170021], the viability at 28.5 h, 10 µM was determined as 93.5%.

For the molecule `O=C(CN(c1ccccc1)S(=O)(=O)c1ccccc1[N+](=O)[O-])Nc1ccc(I)cc1` [CBK263755], the viability at 28.5 h, 10 µM is 58.3%.

Take `C=CCOc1c(Br)cc(CNc2ccc(C(=O)O)cc2)cc1OC` [CBK267202]: the viability at 28.5 h, 10 µM was found to be 111%.

Turning to `COc1ccccc1N1CCN(c2nccc3sc(S(=O)(=O)NCc4ccc(C(F)(F)F)c(F)c4)cc23)CC1` [CBK038270C], the viability at 28.5 h, 10 µM amounted to 93.8%.

Consider `CCCC(=O)Nc1c(F)cc(F)cc1OC1CCNCC1` [CBK045892T], for which the viability at 28.5 h, 10 µM was determined as 91.1%.

For `CCOc1cc(NC2CCN(C(=O)OC(C)(C)C)CC2)ncn1` [CBK306288], the viability at 28.5 h, 10 µM was found to be 89.6%.

For `O=C(CSc1nnc(-c2ccccc2)c(-c2ccccc2)n1)Nc1ccc(N2CCOCC2)cc1` [CBK269684], the viability at 28.5 h, 10 µM is 89.7%.

As for `CC(C)N1CC(C(=O)N(C)C)C2(CCc3ccccc3C2O)C1` (stereo not shown) [CBK286305], the viability at 28.5 h, 10 µM was determined as 89.1%.

As to `Cc1nc2ccc(NC(=O)CCn3nc(C)c(Cl)c3C)cc2s1` [CBK281634], the viability at 28.5 h, 10 µM stood at 106%.

As for `O=C(Nc1ncn(CC(=O)N2CCCCCC2)n1)c1cccs1` [CBK304953], the viability at 28.5 h, 10 µM amounted to 78.1%.

On to `CCn1nc(NC(=O)C2Cc3ccccc3CN2C)cc1C` (stereo not shown) [CBK282133], for which the viability at 28.5 h, 10 µM amounted to 93.8%.

As to `CN(C)Cc1c(O)ccc2c(=O)c(Oc3ccc(-c4ccccc4)cc3)c(C(F)(F)F)oc12` [CBK264519], the viability at 28.5 h, 10 µM amounted to 107%.

`Cc1nnc2ncc(-c3ccccc3C(=O)N(C(C)C)C(C)C)cn12` [CBK307393]: the viability at 28.5 h, 10 µM stood at 94.7%.

For the molecule `CN1CCN(c2cc(-c3ccncc3)nc3ccccc23)CC1` [CBK050976B], the viability at 28.5 h, 10 µM was determined as 89.1%.

For `O=C(NCCc1ccccn1)N1CCCN(Cc2cccs2)CC1` [CBK305283], the viability at 28.5 h, 10 µM is 80.5%.

Turning to `CC(C)C(NC(=O)CSc1n[nH]c(=O)n1Cc1ccccc1)c1ccc2c(c1)OCCCO2` (stereo not shown) [CBK297875], the viability at 28.5 h, 10 µM was 106%.

`CCC(=O)N1CCc2cc(C(O)CN3CCCCC3)ccc21` (stereo not shown) [CBK283111]: the viability at 28.5 h, 10 µM is 98.3%.

Take `O=C(O)c1ccnc2ccccc12` [CBK012261]: the viability at 28.5 h, 10 µM was determined as 88.2%.

Consider `O=[N+]([O-])c1ccc(N2CCN(CCO)CC2)cc1NCc1ccccc1` [CBK042200], for which the viability at 28.5 h, 10 µM turned out to be 99.9%.

As for `Cc1nnc([C@H]2CCN(Cc3ccc(F)cc3)C2)o1` [CBK289391], the viability at 28.5 h, 10 µM turned out to be 88.4%.

Turning to `COc1ccc(-c2cccc(C3CCCN(C(=O)c4ccc(F)cc4)C3)n2)cc1` (stereo not shown) [CBK286107], the viability at 28.5 h, 10 µM was 99.3%.

`Nc1nnc(Cn2c(-c3nonc3N)nc3ccccc32)s1` [CBK263854]: the viability at 28.5 h, 10 µM stood at 117%.

For the molecule `CN(CC(=O)Nc1cccc(Cl)c1)S(=O)(=O)c1ccc2ccccc2c1` [CBK266746], the viability at 28.5 h, 10 µM stood at 105%.

Turning to `CC(=O)c1ccc(-c2cnc(N)c(NC3CCCCC3)n2)s1` [CBK063596], the viability at 28.5 h, 10 µM stood at 106%.

For `COc1ccc(C(=O)N2CCN(c3ncnc4onc(C)c34)CC2)cc1` [CBK304372], the viability at 28.5 h, 10 µM is 93.5%.

As to `OCCSc1ccc(C(F)(F)F)cn1` [CBK028739], the viability at 28.5 h, 10 µM turned out to be 115%.

With `COc1ccc([N+](=O)[O-])cc1CSc1nnc(COc2ccccc2C)n1C` [CBK265820], the viability at 28.5 h, 10 µM was 93%.

Take `Cc1c(NS(=O)(=O)c2cc(C(=O)O)c(Cl)cc2Cl)c(=O)n(-c2ccccc2)n1C` [CBK296123]: the viability at 28.5 h, 10 µM worked out at 90.3%.

For the molecule `CN1CCN(c2cc(-c3ccccc3N(C)C)nc3ccnn23)CC1` [CBK037158], the viability at 28.5 h, 10 µM is 108%.

For the molecule `CCCCc1ccc(C(=O)CSc2nc(N)c(C#N)c(-c3ccc(O)cc3)c2C#N)cc1` [CBK261268], the viability at 28.5 h, 10 µM is 93.4%.

Turning to `CC(=O)N1CCCN(C(=O)Cn2cnc3ccc(F)cc3c2=O)CC1` [CBK245206], the viability at 28.5 h, 10 µM amounted to 106%.

With `CC(C)(C)C(=O)N1CCC(n2nc(C3CC3)ccc2=O)CC1` [CBK284242], the viability at 28.5 h, 10 µM turned out to be 84.6%.

As to `C(=C\c1nccnc1OCc1cccs1)/c1ccccc1` [CBK106883], the viability at 28.5 h, 10 µM turned out to be 112%.

`O=C(O)c1c(Cl)c(C(=O)O)c(C(=O)O)c(Cl)c1C(=O)O` [CBK261177]: the viability at 28.5 h, 10 µM is 96.8%.

In the case of `CNC(=O)CN1C[C@H](NC(=O)c2cccc3c2NCCC3)[C@@H](C(C)C)C1` [CBK307073], the viability at 28.5 h, 10 µM is 80.6%.

Consider `Cc1ccc(C(=O)Nc2cccc(-n3c(C)nc4ccccc4c3=O)c2)cc1` [CBK287725], for which the viability at 28.5 h, 10 µM turned out to be 104%.

For the molecule `Cc1cccc(C)c1NC(=O)c1nccnc1C(=O)O` [CBK260915], the viability at 28.5 h, 10 µM was 97%.

For the molecule `O=C(NCc1cccc(C(F)(F)F)c1)N1CCN(c2ccc(F)cc2)CC1` [CBK156390], the viability at 28.5 h, 10 µM amounted to 89.4%.

With `CCCCc1ccc(-c2ccc(-c3cc(C(=O)O)c4cc(C)ccc4n3)o2)cc1` [CBK300528], the viability at 28.5 h, 10 µM stood at 94%.

`COc1cccc(CNc2nccnc2-c2ccccc2F)c1OC` [CBK037993]: the viability at 28.5 h, 10 µM is 98.1%.

For `COc1cc(N2CCCNCC2)ncn1` [CBK085485C], the viability at 28.5 h, 10 µM came out at 91.6%.

Turning to `COc1ccc(-c2cn(-c3ccc(OC)c(OC)c3)nn2)cc1` [CBK113001], the viability at 28.5 h, 10 µM worked out at 121%.

For `Cc1ccc2c(c1)cc(C)c1nn(CC(=O)N3CCCCC3)c(=O)n12` [CBK283870], the viability at 28.5 h, 10 µM came to 81.6%.

Regarding `N#Cc1ccc(S(=O)(=O)NC2CCCCNC2=O)cc1` (stereo not shown) [CBK009293], the viability at 28.5 h, 10 µM is 102%.

Consider `COc1ccccc1-n1nc(-c2ccncc2)nc1C1CCOCC1` [CBK307229], for which the viability at 28.5 h, 10 µM is 95%.

Consider `CS(=O)(=O)NC1c2cccc3cccc(c23)C1N1CCOCC1` (stereo not shown) [CBK265845], for which the viability at 28.5 h, 10 µM was 102%.

In the case of `COc1cc2c(cc1OC)CN(CCN1CCCCC1)CC2` [CBK126439], the viability at 28.5 h, 10 µM is 101%.

`COc1ccc(C)cc1Nc1nc(N)nc(-c2oc3ccccc3c2C)n1` [CBK269026]: the viability at 28.5 h, 10 µM amounted to 107%.

`COc1ccccc1CN(CC(C)(C)CN)C(=O)NCc1ccc(F)cc1` [CBK002470C]: the viability at 28.5 h, 10 µM stood at 87%.

For `CN(C)CCN(C)C(=O)c1ccc(-c2cccc(Cl)c2Cl)nc1N(C)C` [CBK106082], the viability at 28.5 h, 10 µM came to 94.1%.

On to `CN(C)c1cccc(Oc2nc3c(c(=O)n(C)c(=O)n3C)n2C)c1` [CBK270109], for which the viability at 28.5 h, 10 µM came out at 97.8%.

With `Cc1ccc(-c2cc(C(=O)NC3CN4CCC3CC4)[nH]n2)o1` (stereo not shown) [CBK283276], the viability at 28.5 h, 10 µM amounted to 104%.

For the molecule `CC(C)NC(=O)[C@H]1CN2CCC1C[C@@H]2Cn1cc(C2(O)CCCCC2)nn1` (stereo partly shown) [CBK288732], the viability at 28.5 h, 10 µM came to 99.3%.

Regarding `O=C(Nc1cc2cccnc2nc1Cl)c1ccc(C(F)(F)F)cc1[N+](=O)[O-]` [CBK091348], the viability at 28.5 h, 10 µM stood at 89.9%.

Regarding `CC(C)n1cccc1CN[C@@H]1CCC(=O)N[C@H]1c1cccc(F)c1` [CBK282908], the viability at 28.5 h, 10 µM was found to be 91.1%.

On to `COc1ccc(C(CNC(=O)Cn2c(-c3cccc(C)c3)n[nH]c2=S)N2CCOCC2)cc1OC` (stereo not shown) [CBK297900], for which the viability at 28.5 h, 10 µM worked out at 88.2%.

With `CC1CCc2nc(NC(=O)CC3CCN(C(=O)Cc4ccccc4)CC3)sc2C1` (stereo not shown) [CBK286509], the viability at 28.5 h, 10 µM was 86.4%.

For `Cc1nn(Cc2ccc(F)cc2)c2sc(C(=O)NCc3ccc(S(N)(=O)=O)cc3)cc12` [CBK295181], the viability at 28.5 h, 10 µM is 87%.

`CC1CCc2c(C(=O)Nc3ncc(Cc4ccccc4)s3)csc2C1` (stereo not shown) [CBK300531]: the viability at 28.5 h, 10 µM is 94.6%.

`COCCNC(=O)c1cnc(-c2ccccc2)c(-c2cccnc2)c1` [CBK037515]: the viability at 28.5 h, 10 µM was 106%.

In the case of `O=C(O)c1ccc(CN2C(=O)c3ccc(C(=O)O)cc3C2=O)cc1` [CBK262823], the viability at 28.5 h, 10 µM is 93.7%.

Regarding `Cn1cc(C2CCCCCN2C(=O)c2ccccc2F)cn1` (stereo not shown) [CBK285119], the viability at 28.5 h, 10 µM stood at 107%.

Take `O=C(NCCSCc1ccc(Cl)cc1Cl)c1ccc(Br)cc1` [CBK264733]: the viability at 28.5 h, 10 µM came to 114%.

As to `COc1ccc(-c2cncc(C3CN(Cc4cccc5ncccc45)CCO3)n2)cc1` (stereo not shown) [CBK285947], the viability at 28.5 h, 10 µM is 96.7%.

With `CCOCc1nc2c(c(NCc3cc(C)on3)n1)CCN(C(C)=O)CC2` [CBK307512], the viability at 28.5 h, 10 µM turned out to be 87.4%.

On to `CCOc1ncccc1CNc1ncnc2c1cnn2CCO` [CBK305964], for which the viability at 28.5 h, 10 µM was found to be 97%.

Consider `CCCS(=O)(=O)Nc1nccnc1-c1cccs1` [CBK050763], for which the viability at 28.5 h, 10 µM came to 89.4%.

`Cc1nn(CC(=O)NC2CCCCC2)c(=O)c2cc3ccsc3n12` [CBK284080]: the viability at 28.5 h, 10 µM is 94.9%.

In the case of `c1ccc(-n2cc(-c3cncn3CCCN3CCCCC3)cn2)cc1` [CBK281465], the viability at 28.5 h, 10 µM is 92.4%.

Take `Cc1ccc(C)c(NS(=O)(=O)c2ccc(NC(=O)c3ccc(CN4CCOCC4)cc3)cc2)c1` [CBK264780]: the viability at 28.5 h, 10 µM was 104%.

Take `CC1=C[C@@H](CNS(C)(=O)=O)[C@H](C(C)C)C[C@H]1Cc1nnc(-c2ccccc2F)o1` [CBK289226]: the viability at 28.5 h, 10 µM turned out to be 116%.

For `COc1ccc(CN2CCCN(c3nccc(OCc4cc(C)on4)n3)CC2)cc1` [CBK083911], the viability at 28.5 h, 10 µM turned out to be 100%.

Take `CCOc1cc([N+](=O)[O-])cc(C=O)c1OC(C)C(=O)O` (stereo not shown) [CBK264642]: the viability at 28.5 h, 10 µM is 89.6%.

As for `c1ccc(C(NCc2nnc(-c3ccco3)o2)C2CCC2)cc1` (stereo not shown) [CBK305818], the viability at 28.5 h, 10 µM is 84.7%.

Regarding `Cc1ccc(C(=O)N2CCC(Cc3ccccc3-c3ccccc3)(C(=O)N(C)C)CC2)s1` [CBK285677], the viability at 28.5 h, 10 µM was determined as 107%.
